The values that follow come from patent publication US20250205385A1, “SILICONE MATERIAL, SILICONE TUBE, IMPLANT, PHARMACEUTICAL COMPOSITION, AND TEST METHOD FOR AMOUNT OF DRUG RELEASED” (SHENYANG XINGHUA PHARMACEUTICAL TECHNOLOGY CO., LTD, priority 2022, published 2025).

Usually bioavailability stands for the share of a dose that reaches the circulation, judged against a reference dose that is usually intravenous. For orientation: solubility means how much of the substance goes into solution per volume. A higher solubility goes with a readily soluble substance. The term LogP denotes the decadic logarithm of the partition coefficient of the neutral form, usually between octanol and water. By pKa is commonly meant the pH at which an ionisable group is half protonated. Usually Solubility stands for how much of the substance goes into solution per volume.

The conditions of data set [1]: cited from earlier work.
Data set [2] in a line: Equilibrium solubility of gestodene bulk drug in water and normal saline, before and after micronization. Format: physicochemical. As to conditions: thermodynamic from solid, shaken 72 hours. As for the experimental part: The prepared implant needs to be implanted in the subcutaneous tissue of the human upper arm, where the pH is close to neutral. Therefore, the release medium can be either water or normal saline. A supersaturated solution of the gestodene bulk drug in water and normal saline, both before and after micronization, was prepared. The solution was placed in a shaker and shaken for 72 hours. After shaking, the mixture was taken out and centrifuged, and the supernatant was filtered. The equilibrium solubility of the gestodene bulk drug in water and normal saline, both before and after micronization, was determined using high performance liquid chromatography. Based on the results, the appropriate release medium was selected.
In vitro release experiments were conducted on implants with different silicone tube wall thicknesses, medicinal core side areas, and drug particle sizes. Based on the in vitro release results, long-acting contraceptive implants with a daily drug release of 10-30 μg were prepared. The prepared implant was implanted in the subcutaneous tissue of the human upper arm, where the pH was close to neutral, allowing the release medium to be chosen between water and normal saline. A supersaturated solution of the gestodene bulk drug in water and normal saline, both before and after micronization, was prepared. The solution was placed in a shaker and shaken for 72 hours. After shaking, the mixture was taken out and centrifuged, and the supernatant was filtered. The equilibrium solubility of the gestodene bulk drug in water and normal saline, both before and after micronization, was determined using high performance liquid chromatography. Based on the results, the appropriate release medium was selected. Water was selected as the release medium for the in vitro release experiments. In the following experiments to investigate the in vitro release amount, the implant from Example 27 was subjected to depowdering pre-treatment, which involved adding 50 mL of anhydrous ethanol to a conical flask containing the implant, followed by ultrasonication for 1 minute. This process was repeated three times, after which 100 mL of distilled water was added and left overnight. The next day, the soaking solution was discarded, and the implant was placed in a shaker for in vitro release.

For data set [3] the following is noted: cited from earlier work; for Solubility: in water.

The structures appear in SMILES notation. Values after ≈ are worked out from the molar mass of the structure shown. Read-outs that look alike come from different tables or passages of the source.

As to `C#C[C@]1(O)C=C[C@H]2[C@@H]3CCC4=CC(=O)CC[C@@H]4[C@H]3CC[C@@]21CC` [gestodene], the bioavailability in data set [1] (background statement) is reported as around 100%. Moreover, the “daily release sufficient to produce a contraceptive effect” value in data set [1] (humans, review of the literature) is 10 to 20 µg. The solubility at 72 h came out at 2.71 ± 0.24 µg/mL (≈ 8.73 µM) in data set [2] (normal saline, saline or isotonic, drug particle size 2.81 μm (micronized), normal saline (NS)); 5.3 ± 0.58 µg/mL (≈ 17.1 µM) in data set [2] (normal saline, saline or isotonic, drug particle size 80.30 μm (unmicronized), normal saline (NS)); 4.11 ± 0.52 µg/mL (≈ 13.2 µM) in data set [2] (water or normal saline, drug particle size 2.81 μm (micronized), water); 5.64 ± 0.62 µg/mL (≈ 18.2 µM) in data set [2] (water or normal saline, drug particle size 80.30 μm (unmicronized), water).
For `Cc1nc2n(c(=O)c1CCN1CCC(c3noc4cc(F)ccc34)CC1)CCCC2O` (stereo not shown) [paliperidone], in data set [3] (bulk drug), the LogP is 3.02. Besides, the pKa in data set [3] (bulk drug) and in data set [3] was 7.72 each time.
Regarding `CC(C)Cc1ccc(C(C)C(=O)O)cc1` (stereo not shown) [ibuprofen], in data set [3] (bulk drug), the Solubility was 60 µg/mL (≈ 291 µM) and the LogP was 3.72. Also, the solubility in water in data set [3] is 60 µg/mL (≈ 291 µM).
Consider `Cc1cnc(NC(=O)C2=C(O)c3ccccc3S(=O)(=O)N2C)s1` [meloxicam], for which, in data set [3] (bulk drug), the Solubility is 3.4 µg/mL (≈ 9.68 µM), the LogP is listed as 3.35 and the pKa is recorded as 4. For the same compound, in data set [3], the pKa is listed as 4 and the solubility in water is 3.4 µg/mL (≈ 9.68 µM).
With `O=c1c(-c2ccc(O)cc2)coc2c([C@@H]3O[C@H](CO)[C@@H](O)[C@H](O)[C@H]3O)c(O)ccc12` [puerarin], in data set [3] (bulk drug), the Solubility was 4000 µg/mL (≈ 9610 µM), the LogP is recorded as −0.67 and the pKa was 6.45. In data set [3], the pKa is 6.45 and the solubility in water was 4000 µg/mL (≈ 9610 µM).
